Assay [1] has as its system MCaIV tumors. Kind of assay: Intravital microscopy of MCaIV tumors under iNOS inhibition. It is filed as in vivo, mice. The note with it: 1400 W 10 mg/kg/day by osmotic pump vs saline, 7 days. From the text:
FIGS. 12A-E show the effect of iNOS inhibition in MCaIV tumors and blood vessel morphology and function in MCaIV tumors. (A) Fluorescence immunohistochemistry image of iNOS expression (green), F4/80 positive macrophages (red) and DAPI stained nuclei (blue) in MCaIV tumors grown in the mammary fat pad. The bar indicates 50 μm. (B-C) MPLSM images of MCaIV tumors grown in αSMA^P-GFP mice treated with saline control (B) or an iNOS inhibitor 1400 W (C). Functional blood vessels were contrast-enhanced by i.v. injection of tetramethylrhodamine-dextran (red). αSMA-positive perivascular cells were visualized by GFP fluorescence (green). The bars indicate 100 μm. (D-E) MCaIV tumors grown in αSMAP-GFP mice were treated with saline (control) or iNOS inhibitor (1400 W) for 7 days. (D) Perivascular cell coverage. (N=4, each). (E) Vascular permeability (N=7, each). Data are mean±SEM. *p<0.05 vs. control.
Breast cancer cells in MCaIV murine mammary tumor model express iNOS similar to many human tumors, in contrast to the U87MG glioma model, in which tumor cells predominantly express neuronal NOS (nNOS). MCaIV tumors grown orthotopically in the mammary fat pad express iNOS and to a much lesser extent eNOS as determined by real time RT-PCR. […] Inhibition of iNOS would eliminate the majority of non-vascular NO production. […]

Assay [2] relates to 10T1/2 cells. In words: cGMP production in cultured 10T1/2 cells. It counts as cell-based. To be noted: 100 μM. As to the method:
(§1) FIGS. 13A-C show the role of the NO-sGC-cGMP pathway in perivascular cell recruitment and migration. (A) In bar graph form, cGMP production in cultured 10T1/2 cells in response to NO donor or PDE5 inhibitor. (B) In bar graph form, the migration of 10T1/2 cells in a transwell assay. 10T1/2 cell migration was assessed using Falcon HTS FluoroBlok inserts with 1 μm pores. GFP-expressing 10T1/2 cells were inoculated in the inserts, and HUVECs were inoculated in the outer well. Percent area of transwell filter covered by migrated 10T1/2 cells was determined. Medium only indicates no HUVECs in the outer well. ODQ, T-1032, Sildenafil, or Sildenafil+L-NMMA were added to the medium. *P<0.05 vs. control (HUVEC). (C) Images for transmigrated GFP-10T1/2 cells at the back side of the Fluoroblock insert after 10 hours with control vs. T-1032 treatment.
cGMP levels were examined in 10T1/2 cells following treatments of an NO donor DETANONOate or an inhibitor for phosphodiesterase 5 (PDE5), an enzyme which degrades cGMP.

For assay [3], the system named is U87 gliomas. Kind of assay: NO distribution in U87 gliomas by DAF-2T fluorescence (MPLSM). It counts as in vivo, mice. To be noted: animals treated with L-NMMA compared to D-NMMA. As to the method: FIGS. 3A-B show microfluorographs depicting NO distribution in U87 gliomas grown in the cranial window in Rag-1^−/−. NO production was visualized by means of DAF-2T fluorescence 0, 20, 40 and 60 min after DAF-2 (0.5 mg/body) injection. Left column, micro-angiography with tetramethylrhodamine-dextran (2000 kDa). Middle column, representative DAF-2T microfluorography captured 60 min after the loading of DAF-2 in tumors. Right column, pseudocolor representation of DAF-2T microfluorographs. […] Bars indicate 100 μm. (A) NO distribution in parental U87MG (top row) or nNOS shRNA58-transfected-U87 (bottom row) tumors. […]
(§2) Vascular parameters such as functional vessel density (the total length of perfused microvessels per unit area) and vessel diameter were analyzed by tracing each vessel segment using NIH image 1.63 as described elsewhere (Kashiwagi, S., et al. 2005 J. Clin. Invest. 115, 1816-1827). Tissue distribution of NO was visualized using MPLSM and the NO-sensitive fluorescence probe 4,5-diaminofluorescein (DAF-2) (0.5 mg i.v. Daiichi Pure Chemicals Co. Ltd) as described previously (Kashiwagi, S., et al. 2005 J. Clin. Invest. 115, 1816-1827). NO converts DAF-2 to 4,5-diaminofluorescein triazolium (DAF-2T) increasing fluorescence by a factor of 200. The DAF-2 associated fluorescence images were captured 60 min after i.v. injection. […]

The test system of assay [4] is U87MG tumors. Kind of assay: Vessel morphology of U87 tumors in the cranial window by intravital microscopy. It counts as in vivo, mice. The protocol:
Recombination activating gene 1 (Rag-1^−/−) mice backcrossed to C57BL/6 background or severe combined immunodeficiency (SCID) mice, bred and maintained in an gnotobiotic animal facility, were used. To obtain source tumor tissue, U87 tumor cells in culture (1×10^6 cells) were injected subcutaneously into Rag-1^−/− or SCID mice matching the recipient mice. When the tumor reached about 8 mm in diameter, it was excised after euthanasia and a small piece (about 1 mm^3) of viable tumor tissue was implanted into a cranial window or subcutaneously into the calf area of the right hindlegs of the mice as previously described (Kashiwagi, S., et al. 2005 J. Clin. Invest. 115, 1816-1827; Kozin, S. V., et al. 2001 Cancer Research 61, 39-44). All animal procedures were carried oat following the Public Health Service Policy on Humane Care of Laboratory Animals and approved by the Institutional Animal Care and Use Committee of Massachusetts General Hospital. […]
(§3) Angiogenesis and vessel morphology were determined in U87 and GL261 tumors grown in the cranial windows by intravital microscopy using multiphoton laserscanning microscopy (MPLSM) or single photon fluorescence microscopy (SPFM) when tumors reached about 7 mm^2. […] Using MPLSM, five locations with 200-μm thick imaging stack were recorded for each tumor. […]
as §2

In assay [5] the test system is 10T1/2 cells. Kind of assay: Transwell migration of 10T1/2 cells toward HUVECs. It counts as cell-based. The note with it: Sildenafil+L-NMMA. As to the method:
as §1
FIGS. 14A-B show the effect of PI3K inhibition on transwell migration of 10T1/2 cells toward HUVECs. 10T1/2 cell migration was assessed using Falcon HTS FluoroBlock inserts with 1 μm pores. GFP-expressing 10T1/2 cells were inoculated in the inserts and human umbilical vein endothelial cells (HUVECs) were inoculated in the outer well. (A) Images for transmigrated GFP-10T1/2 cells at the back side of the FluoroBlock insert after 16 hours. Images are 865 μm across. (B) Quantification of 10T1/2 cell transwell migration. Data are expressed as percentage relative to the control (HUVEC) migration of the same experimental batch. Medium represents no HUVECs in the outer well. LS294002 10 μM was added. n=4 each. *p<0.05 as compared to the control (HUVEC).
The effect of sGC inhibitor was next examined on 10T1/2 cell migration. […] Finally, the effect of PDE5 inhibitors on 10T1/2 cell migration was examined. […] L-NMMA abolished induction of 10T1/2 cell migration induced by Sildenafil. (Mann-Whitney U-test).
To elucidate the downstream signaling pathway of NO-dependent perivascular cell recruitment, the effect of PI3K inhibitor […] (10 μM) on the transwell 10T1/2 cell migration toward HUVECs was determined (FIG. 14A-B).

Assay [6] concerns U87MG tumors. In words: Microvascular permeability of U87 tumors by intravital microscopy with tetramethylrhodamine-BSA. To be noted: L-NPA 20 mg/kg daily i.p. vs saline, cranial window. It counts as in vivo, mice. The protocol: To lower NO production from all NOS isoforms in the gliomas, mice received a pan-NOS inhibitor NG-Monomethyl-L-arginine monoacetate (L-NMMA) (Alexis Corp.) or non-active control compound D-NMMA (Alexis Corp.) at the rate of 7 mg/day by a constant release micro-osmotic pump (Model 1002, Alzet Osmotic Pumps, Durect Corp.) (Kashiwagi, S., et al. 2005 J. Clin. Invest. 115, 1816-1827). The micro-osmotic pumps were implanted in the back of the animals one day before the implantation of tumors. […]
The effective vascular permeability (P) was determined by SPFM as described previously (Fukumura, D., et al. 2001 Proc Natl Acad Sci USA 98, 2604-2609). In brief, the fluorescence intensity of the tumor tissue was intermittently measured for 20 min after the injection of tetramethylrhodamine-labeled bovine serum albumin (10 mg/ml, 0.1 ml per 25 g body weight). Permeability was calculated as P=(1−HT) V/S [1/(I0−Ib)*dI/dt+1/K], where I is the average fluorescence intensity of the whole image, I0 is the initial fluorescence intensity, and Ib is the background fluorescence intensity, HT is hematocrit, V and S are the total volume and surface area of vessels within the tissue volume covered by the surface image, respectively, and K is the time constant of BSA plasma clearance (Fukumura, D., et al. 2001 Proc Natl Acad Sci USA 98, 2604-2609).

Assay [7] concerns GL261 tumors. In words: Vessel morphology and function of GL261 tumors in the cranial window. It is filed as in vivo. The note with it: L-NPA vs saline, SCID mice. As to the method: FIGS. 7A-E show NOS expression in GL261 tumors and the effect of an nNOS selective inhibitor on vessel morphology and function in GL261 tumors. (A) NOS expression in GL261 tumors grown in the cranial window in SCID mice. Five micron paraffin block sections were immunostained using antibodies to eNOS, nNOS, iNOS or non-specific mouse IgG. The bar indicates 100 μm. Different from U87MG tumors, GL261 tumor cells express all three isoforms of NOS, especially strong expression of eNOS. (B) MPLSM microangiographies of GL261 tumors treated with saline and L-NPA. The bar indicates 200 μm. (C-D) Quantification of 3-D vessel density (C) and diameter (D) using MPLSM image stack and an automated image analysis system. N=6 each. (E) Microvascular permeability in GL261 tumors treated with saline (N=6) and L-NPA (N=6) was measured by intravital microscopy using tetramethylrhodamine-BSA. […]
as §3
The effective vascular permeability (P) was determined by SPFM as described previously (Fukumura, D., et al. 2001 Proc Natl Acad Sci USA 98, 2604-2609). […]

Where [8] appears, read: L-NMMA 7 mg/day by osmotic pump vs D-NMMA, SCID mice.

SMILES strings stand for the structures. Entries after “also recorded” stand apart in the source; their conditions may differ.

Take `CC(=N)NCc1cccc(CN)c1` [1400 W, N-(3-(Aminomethyl)benzyl) acetamidine]: in assay [1], the vascular permeability result is on record as “significantly lower”. Further, the perivascular cell coverage entry in assay [1] (αSMAP-GFP mice) is “significantly increased”.
For `NCCN(CCN)/[N+]([O-])=N/O` [DETANONOate], the cGMP level result in assay [2] was “increased”.
For the compound `CC(=O)O.CNC(=N)NCCC[C@H](N)C(=O)O` [L-NMMA, NG-Monomethyl-L-arginine monoacetate], the “DAF-associated fluorescence (NO production)” value in assay [3] was “abolished”. In assay [4] (setting [8]), the vessel density entry is given as “decreased” and the vessel diameter entry is listed as “increased”. Further, in assay [5], the “induction of 10T1/2 cell migration induced by Sildenafil” value is on record as “abolished”.
With `CCCN=C(N)NCCC[C@H](N)C(=O)O` [L-NPA, NG propyl-L-arginine], in assay [4] (L-NPA 20 mg/kg daily i.p. vs saline, cranial window), the vessel density entry is “increased”. For the same compound, the vascular permeability result in assay [6] is “decreased”. The “tumor vasculature (vessel morphology and function)” value in assay [7] is “did not improve; also recorded: did not alter”.

The values above are taken from patent US20130195926A1, “MODULATION OF NITRIC OXIDE SIGNALING TO NORMALIZE TUMOR VASCULATURE” (The General Hospital Corporation, priority 2007, published 2013).
